Key:
EPHA7 [1] = assay: RNA interference assay: EPHA7 expression by semiquantitative RT-PCR; format: cell-based, human; conditions: NCI-H520 and SBC-5 cells; versus control siRNAs (LUC, SCR)
Experimental: (§1) Total RNA was extracted from cultured cells using Trizol reagent (Life Technologies, Inc. Gaithersburg, Md.) according to the manufacturer's protocol. Extracted RNAs were treated with DNase I (Nippon Gene, Tokyo, Japan) and reversely-transcribed using oligo (dT) primer and SuperScript II. The primer sets for amplification were as follows:
(§2) Small interfering RNA (siRNA) duplexes (Dharmacon, Inc., Lafayette, Colo.) (600 pM) were transfected into lung-cancer cell lines LC319 and A549 for CDCA5; NCI-H520 and SBC-5 for EPHA7; LC319 for WDHD1, and esophageal cancer cell line TE9 for WDHD1 using 30 μl of Lipofectamine 2000 (Invitrogen, Carlsbad, Calif.) following the manufacturer's protocol. The transfected cells were cultured for 7 days, and the number of colonies was counted by Giemsa staining, and viability of cells was evaluated by 3-(4,5-dimethylthiazol-2-yl)-2,5-diphenyltetrazolium bromide (MTT) assay (cell counting kit-8 solution; Dojindo Laboratories, Kumanoto, Japan), at 7 days after transfection. To confirm suppression of gene expression, semiquantitative RT-PCR was carried out with synthesized primers described above.

NCI-H520 cells = assay: RNA interference assay (oligo based): colony formation and MTT assays; format: cell-based, human; conditions: 7 days after transfection
Experimental: as §2

SBC-5 cells = assay: as above; format: cell-based, human; conditions: 7 days after transfection
Experimental: as §2

WDHD1 = assay: RNA interference assay: WDHD1 knockdown by RT-PCR; format: cell-based, human; conditions: A549, LC319 and TE9 cells
Experimental: as §1, §2

CDCA5 [2] = assay: RNA interference assay: CDCA5 expression by semiquantitative RT-PCR; format: cell-based, human; conditions: A549 and LC319 cells; compared with control siRNA (si-LUC and si-CNT)
Experimental: as §1, §2

STK31 = assay: RNA interference assay (vector based): STK31 knockdown by RT-PCR; format: cell-based, human; conditions: LC319 cells; controls si-EGFP and si-LUC
Experimental: as §1
(§3) The present inventors had established previously a vector-based RNAi system, psiH1BX3.0, which was designed to synthesize small interfering RNAs (siRNA) in mammalian cells (Suzuki C, et al., Cancer Res. 2003 Nov. 1; 63(21): 7038-41). Ten micrograms of siRNA expression vector were transfected using 30 μL Lipofectamine 2000 (Invitrogen) into lung cancer cell lines, LC319 and NCI-H2170. The transfected cells were cultured for 7 days in the presence of appropriate concentrations of geneticin (G418), and the number of colonies was counted by Giemsa staining, and viability of cells was evaluated by 3-(4,5-dimethylthiazol-2-yl)-2,5-diphenyltetrazolium bromide (MTT) assay (cell counting kit-8 solution; Dojindo, Kumamoto, Japan), at 7 days after the G418 treatment. To confirm suppression of STK31 protein expression, Western blotting was carried out with affinity-purified polyclonal antibody to STK31 according to the standard protocol. The target sequences of the synthetic oligonucleotides for RNAi were as follows: […]

LC319 cells = assay: RNA interference assay (vector based): colony formation and MTT assays; format: cell-based, human; conditions: P<0.001; 7 days with G418
Experimental: as §3

EPHA7 [3] = biological target: T1, EPHA7 (Homo sapiens, UniProt Q15375); assay: In vitro EPHA7 kinase assay: EPHA7 autophosphorylation; format: biochemical; conditions: at the minimum concentration inhibiting EGFR or MET autophosphorylation (assay used 1 mM AG1478, 12.5 μM SU11274)
T1 construct: in vitro kinase assay using active recombinant proteins of cytoplasmic EPHA7, MET, EGFR; purchased Carnabioscience, Kobe, Japan
T1 sequence (Q15375 577-998 limits assumed): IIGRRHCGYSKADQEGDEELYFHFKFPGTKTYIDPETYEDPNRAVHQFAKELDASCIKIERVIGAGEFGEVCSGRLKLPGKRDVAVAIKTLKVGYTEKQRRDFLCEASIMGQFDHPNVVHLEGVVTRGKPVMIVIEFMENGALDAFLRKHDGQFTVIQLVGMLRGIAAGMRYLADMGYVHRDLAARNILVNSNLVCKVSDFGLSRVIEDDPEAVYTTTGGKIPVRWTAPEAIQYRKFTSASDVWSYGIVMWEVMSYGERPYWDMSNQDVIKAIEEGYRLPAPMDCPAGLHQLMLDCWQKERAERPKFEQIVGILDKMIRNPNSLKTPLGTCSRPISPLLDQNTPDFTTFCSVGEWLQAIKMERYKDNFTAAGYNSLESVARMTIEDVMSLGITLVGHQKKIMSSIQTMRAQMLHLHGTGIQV
Experimental: Active recombinant EPHA7 (Carnabioscience, Kobe, Japan), EGFR (Millipore, Billerica, Mass.), MET (Millipore), EGFR inhibitor AG1478 (EMD), and MET inhibitor SU11274 were commercially purchased. We constructed plasmids expressing partial fragments of EGFR (#1: codons 692-891, #2: codons 889-1045, #3: codons 1046-1186) that contained GST-tagged epitopes at their N-terminals were prepared using pGEX vector (GE Healthcare Bio-sciences). The recombinant peptides were expressed in Escherichia coli, BL21 codon-plus strain (Stratagene, La Jolla, Calif.), and purified using TALON resin (BD Biosciences Clontech) according to the supplier's protocol. The purified proteins were extracted on an SDS-PAGE gel. […] ATP (GE Healthcare Bio-sciences). After incubation at 30 degrees C. for 30 minutes the reactions were terminated by addition of SDS sample buffer. After boiling, the protein samples were electrophoresed on 5% to 15% gradient gel (Bio-Rad), and then signals were visualized by Molecular imager FX (Bio-Rad). In EPHA7 kinase assay using MET as substrate, we adopted the same protocol as above mentioned EPHA7-EGFR kinase reaction, using 50 ng of MET and 12.5 μM of SU11274 (MET inhibitor; see above), instead of EGFR and AG1478. […] ATP, and detected phosphorylated proteins using anti-pan phospho-tyrosine antibody (Invitrogen).

CDCA5 [4] = assay: CDC2-dependent phosphorylation of CDCA5 in mitosis, western blotting; format: cell-based
Experimental: To determine whether endogenous CDCA5 phosphorylation in mitosis was CDC2-dependent, we further treated the lung cancer cells at 5 hours after release from G1/S phase with nocodazole alone or both nocodazole and CDC2 inhibitor CGP74514A, and measured the status of CDCA5 phosphorylation by western blotting. Mitotic cells treated with nocodazole alone gradually expressed phosphorylated CDCA5 (shifted bands) (FIG. 19B).

CDCA5 [5] = test system: CDCA5
Experimental: (§4) Cultured A549 and LC319 lung cancer cells as well as cervical squamous cell carcinoma Hela cells were synchronized in G1/S phase by 2 μg/ml aphidilcoline for 16 hours incubation. For mitosis synchronization, the cells were released at 0 hour from G1/S phase. Nocodazole was added at 5 hours to prevent mitotic exit. At the point, CDC2 inhibitors or PBS were added to the cell cultures. For the EGF stimulation assay, Hela cells were cultured in FBS free medium for 20 hours. Then, the cells were stimulated by […] EGF for 30 min with or without 10 μM MEK inhibitor U0126 (Promega)

ERK = conditions: serum-starved Hela cells, EGF stimulation with 10 μM U0126
Experimental: as §4

NSCLC = conditions: cited from earlier work

Compound: 5′-AAAAGAGAUGUUGCAGUA-3′ [si-EPHA7-#1]
- EPHA7 mRNA levels / EPHA7 expression (EPHA7 [1]): weak reduction of EPHA7 expression
- number of colonies and viable cells (MTT), NCI-H520 cells, siRNA against EPHA7 (NCI-H520 cells): slight decreases in colony numbers and cell viability
- number of colonies and viable cells (MTT), SBC-5 cells, siRNA against EPHA7 (SBC-5 cells): slight decreases in colony numbers and cell viability

Compound: 5′-GAUCAGACAUGUGCUAUUA UU-3′ (GAUCAGACAUGUGCUAUUAUU; listed as RNA, chemistry not given here) [si-WDHD1-#1]
- WDHD1 knockdown effect (RT-PCR) (WDHD1): knockdown effect was confirmed

Compound: 5′-GCAGUUUGAUCUCCUGGUUU-3′ [si-CDCA5-#1]
- expression of CDCA5 (CDCA5 [2]): significantly suppressed expression of CDCA5

Compound: 5′-GCCAGAGACUUGGAAAUGU UU-3′ [si-CDCA5-#2]
- expression of CDCA5 (CDCA5 [2]): significantly suppressed expression of CDCA5

Compound: 5′-GGAGATAGCTCTGGTTGAT-3′ [si-STK31-#1]
- STK31 knockdown effect (RT-PCR) (STK31): knockdown effect was confirmed
- number of LC319 cells (MTT and colony-formation assays), siRNA against STK31 (LC319 cells): drastic reduction in the number of cells

Compound: 5′-GGGCTATTCTGTGGATGTT-3′ [si-STK31-#2]
- STK31 knockdown effect (RT-PCR) (STK31): knockdown effect was confirmed
- number of LC319 cells (MTT and colony-formation assays), siRNA against STK31 (LC319 cells): drastic reduction in the number of cells

Compound: 5′-UAGCAAAGCUGACCAAGAA-3′ [si-EPHA7-#2]
- EPHA7 mRNA levels / EPHA7 expression (EPHA7 [1]): significantly decreased
- number of colonies and viable cells (MTT), NCI-H520 cells, siRNA against EPHA7 (NCI-H520 cells): significant decreases in the number of colonies formed and in the numbers of viable cells
- number of colonies and viable cells (MTT), SBC-5 cells, siRNA against EPHA7 (SBC-5 cells): significant decreases in the number of colonies formed and in the numbers of viable cells

Compound: COc1cc2ncnc(Nc3cccc(Cl)c3)c2cc1OC [AG1478]
- EPHA7 autophosphorylation (EPHA7 [3]): did not inhibit EPHA7 autophosphorylation

Compound: CCn1cnc2c(Nc3cccc(Cl)c3)nc(N[C@@H]3CCCC[C@@H]3N)nc21 [CGP74514A]
- CDCA5 phosphorylation in mitosis (upper shifted bands) (CDCA5 [4]; added with nocodazole 5 hours after release from G1/S phase): showed no upper shifted bands indicating that CDCA5 phosphorylation in mitosis was significantly inhibited
- stability of CDCA5 protein (CDCA5 [4]; cells treated with CDC2 inhibitor (FIG. 19C)): seems to be unstable

Compound: Cc1[nH]c(/C=C2\C(=O)Nc3ccc(S(=O)(=O)N(C)c4cccc(Cl)c4)cc32)c(C)c1C(=O)N1CCN(C)CC1 [SU11274]
- EPHA7 autophosphorylation (EPHA7 [3]): did not inhibit EPHA7 autophosphorylation

Compound: N#CC(=C(/N)Sc1ccccc1N)/C(C#N)=C(\N)Sc1ccccc1N [U0126]
- signal of spot no. 2 of myc-tagged CDCA5, 2D-western-blotting (CDCA5 [5]; Hela cells, EGF, U0126 treatment): reduced
- shifted spots with more acidic pI (spots no. 3 and 4) of myc-tagged CDCA5, 2D-western-blotting (CDCA5 [5]; Hela cells, EGF, pre-incubation with U0126): significantly reduced
- upper shift of CDCA5 band (endogenous CDCA5 phosphorylation) (CDCA5 [5]; serum-starved Hela cells, EGF stimulation with 10 μM U0126): completely inhibited the upper shift of CDCA5 band
- levels of ERK phosphorylation (ERK): reduced the levels of ERK phosphorylation

Compound: O=C1Cc2c([nH]c3ccc([N+](=O)[O-])cc23)-c2ccccc2N1 [alsterpaullone]
- CDC2-inhibitory activity relative to CGP74514A (CDCA5 [4]): lower compared with the other CDC2 inhibitor CGP74514A
- CDCA5 phosphorylation in mitosis (CDCA5 [4]; 4 μM, with nocodazole 5 hours after release from G1/S phase): could strictly inhibit CDCA5 phosphorylation

Compound: C#Cc1cccc(Nc2ncnc3cc(OCCOC)c(OCCOC)cc23)c1 [erlotinib]
- median survival (NSCLC; NSCLC patients, placebo 4.7 months (Shepherd et al. 2005)): 6.7 months

Compound: COc1cc2ncnc(Nc3ccc(F)c(Cl)c3)c2cc1OCCCN1CCOCC1 [gefitinib]
- clinical outcome (NSCLC; NSCLC (Giaccone 2004; Baselga 2004)): superior response rate and symptom control

— US20110160280A1, “CANCER-RELATED GENES, CDCA5, EPHA7, STK31 AND WDHD1” (Oncotherapy Science, Inc., priority 2007, published 2011)
